In patent publication US7759346B2, “[[2-(amino-3,4-dioxo-1-cyclobuten-1-yl)amino]alkyl]-acid derivatives for the treatment of pain” (priority 2001, dated 2010):
Read-outs that look alike come from different tables or passages of the source.

What was measured:
[1] = system: cingulate and retrosplenial cortices of mice and rats; experiment: Induction of vacuoles (vacuolization) versus behaviorally effective doses; details: in vivo
[2] = system: rats trained to discriminate between saline and PCP; experiment: PCP-like discriminative stimulus effects (substitution for PCP); type: in vivo
Spraque-Dawley rats [3] = experiment: Scheduled-controlled responding (operant responding, food presentation)
Description: (§1) [formula] in which 50%^drug+CCl is the 50% value after compound in animals approximately one week after CCl surgery, 50%^CCl is the 50% value approximately one week after CCl surgery alone, and 50%^baseline is the 50% value before CCl surgery. Maximal effect of 100% reversal represents a return to the mean pre-operative threshold value for subjects in that experimental condition. Test Method 3: Scheduled-Controlled Responding.
Rats were trained under a multiple-cycle procedure during experimental sessions conducted five days each week. Each training cycle consisted of a 1-min pretreatment period followed by a 10-min response period. During the pretreatment period, stimulus lights were not illuminated, and responding had no scheduled consequences. During the response period, the left or right stimulus lights were illuminated (counterbalanced among subjects), the response lever was extended and subjects could respond under a fixed ratio 30 schedule of food presentation. Training sessions consisted of 3 consecutive cycles. Testing sessions were identical to training sessions except that a single dose of drug was administered at the start of the first cycle.
Data analysis. Operant response rates from individual animals were averaged for the three cycles during test sessions and were converted to percent of control response rates using the average rate from the previous training day as the control value (i.e., average of three cycles). Data are presented as the mean (±1 SEM) response rate as a percent of control.

[4] = PCP-like effects relative to doses effective in an ischemia model; details: in vivo
Spraque-Dawley rats [5] = experiment: Observable signs of sedation and ataxia
Spraque-Dawley rats [6] = type: in vivo, rat
Description: (§2) The terminal 10 cm of the tail was placed into a thermos bottle containing water warmed to 38, 42, 46, 50, 54, or 58° C. The latency in seconds for the animal to remove the tail from the water was used as a measure of nociception.
(§3) Following the assessment of baseline thermal sensitivity, thermal hypersensitivity was produced by a 50 μL injection of 0.1 mg prostaglandin E2 (PGE2) into the terminal 1 cm of the tail. Temperature-effect curves were generated before (baseline) and after (15, 30, 60, 90 and 120 min) the PGE2 injection.
Compounds were administered IP at the same time as PGE2, which was administered 30 min before testing.
(§4) Test Method 1 Data Analysis—The temperature that produced a half-maximal increase in the tail-withdrawal latency (i.e., T10) was calculated from each temperature-effect curve. The T10 was determined by interpolation from a line drawn between the point above and the point below 10 sec on the temperature-effect curve. For these studies, thermal hypersensitivity was defined as a leftward shift in the temperature-effect curve and a decrease in the T10 value. Reversal of thermal hypersensitivity was defined as a return to baseline of the temperature-effect curve and the T10 value and was calculated according to the following equation: […]

Spraque-Dawley rats [7] = experiment: Warm-water tail withdrawal combination studies with morphine; type: in vivo, rat; details: 10.0 mg/kg IP, 30 min before testing
Description: as §2
Combination compound studies. […] Compounds were administered IP at the same time 30 min before testing.
as §4

Spraque-Dawley rats [8] = experiment: Chronic Constriction Injury-induced tactile hypersensitivity (von Frey); type: in vivo, rat; details: IP, one week after CCl surgery
Description: Rats were anesthetized with 3.5% halothane in O2 at 1 L/min and maintained with 1.5% halothane in O2 during surgery. A modified chronic sciatic nerve constriction injury (Mosconi & Kruger, 1996; Bennett & Xie, 1988) was produced by a cutaneous incision and a blunt dissection through the biceps femoris to expose the sciatic nerve. A PE 90 Polyethylene tubing (Intramedic, Clay Adams; Becton Dickinson Co.) cuff (2 mm length) was placed around the sciatic nerve at the level of the mid-thigh. The wound was closed in layers using 4-0 silk suture and wound clips. Testing was conducted 6-10 days after surgery.
Animals were placed in elevated wire cages and allowed 45-60 minutes to acclimate to the testing room. Baseline tactile sensitivity was assessed using a series of calibrated von Frey monofilaments (Stoelting; Wood Dale, Ill.) 0-3 days before surgery. Von Frey monofilaments were applied to the mid-plantar hind paw in sequential ascending or descending order, as necessary, to hover as closely as possible to the threshold of responses. The threshold was indicated by the lowest force that evoked a brisk withdrawal response to the stimuli. Thus, a withdrawal response led to the presentation of the next lighter stimulus and the lack of a withdrawal response led to the presentation of the next stronger stimulus. Rats with baseline thresholds <10 g force were excluded from the study. […] Under cumulative dosing conditions, compounds were administered IP every 30 minutes with the cumulative dose increasing in ½ log unit increments. Tactile hypersensitivity was assessed 20-30 minutes following each drug administration.
Test Method 2 Data Analysis—The 50% threshold values (in gm force) estimated by the Dixon non-parametric test (Chaplan et al, 1994) was calculated and fifteen-grams of force was used as the maximal force. Dose-effect curves were generated for each experimental condition for each rat. Individual tactile hypersensitivity threshold values were averaged to provide a mean (±1 SEM). Reversal of tactile hypersensitivity was defined as a return to baseline tactile sensitivity and was calculated according to the following equation:
as §1

Spraque-Dawley rats [9] = experiment: Prostaglandin E2-induced thermal hypersensitivity, warm-water tail withdrawal, single compound studies; type: in vivo, rat; details: given 30 min before PGE2
Description: Ketamine and dizocilpine are high affinity use-dependent NMDA receptor channel blockers, while memantine is a moderate affinity use-dependent NMDA receptor channel blocker. CGS-19755 is a competitive NMDA antagonist and ifenprodil is a […] polyamine antagonist. Test Method 1: Prostaglandin E2-Induced Thermal Hypersensitivity.
as §2, §3
Single compound studies. The ability of drugs to reverse PGE2-induced thermal hypersensitivity was assessed using a single dose time-course procedure. Under this procedure, a single dose of the compound to be tested was administered intraperitoneally (IP), orally (PO) or intranasally (IN) 30 min before the injection of PGE2. […] sensitivity was assessed 30 min after PGE2 injection.
Test Method 1 Data Analysis—The temperature that produced a half-maximal increase in the tail-withdrawal latency (i.e., T10) was calculated from each temperature-effect curve. The T10 was determined by interpolation from a line drawn between the point above and the point below 10 sec on the temperature-effect curve. For these studies, thermal hypersensitivity was defined as a leftward shift in the temperature-effect curve and a decrease in the T10 value. Reversal of thermal hypersensitivity was defined as a return to baseline of the temperature-effect curve and the T10 value and was calculated according to the following equation:
[formula] in which T10^drug+PGE2 is the T10 after a drug in combination with PGE2, T10^PGE2 is the T10 after PGE2 alone, and T10^baseline is the T10 under control conditions. A % MPE value of 100 indicates a complete return to the baseline thermal sensitivity observed without the PGE2 injection. […] Test Method 2: Chronic Constriction Injury

SMILES: O=c1c2c(c1=O)N(CCP(=O)(O)O)CCCN2 [Compound A, [2-(8,9-Dioxo-2,6-diazabicyclo[5.2.0]non-1(7)-en-2-yl)ethyl]phosphonic acid]
- effectiveness/vacuolization ratio [1]: ≤ 16
- substitution for PCP [2]: did not substitute for PCP
- Operant responding: response rate as a percent of control (Spraque-Dawley rats [3]; IP, 3 mg/kg): 111%
- Operant responding: response rate as a percent of control (Spraque-Dawley rats [3]; IP, 10 mg/kg): 86%
- Operant responding: response rate as a percent of control (Spraque-Dawley rats [3]; PO, 10 mg/kg): 112%
- Operant responding: response rate as a percent of control (Spraque-Dawley rats [3]; PO, 30 mg/kg): 97%
- Operant responding: response rate as a percent of control (Spraque-Dawley rats [3]; PO, 100 mg/kg): 100%
- rates of responding (in words) (Spraque-Dawley rats [3]; schedule of food presentation, Compound A IP or PO at doses that reversed hypersensitivity): did not significantly modify rates of responding
- devoid of many PCP-like effects up to doses times higher than those effective in an ischemia model [4]: 4-10
- ataxia or sedation (Spraque-Dawley rats [5]; at doses needed to relieve pain in preclinical models): did not produce ataxia or sedation
- sedation or ataxia (Spraque-Dawley rats [5]; doses effective in PGE2 test (as high as 178 mg/kg)): not associated with sedation or ataxia
- sedation or ataxia (Spraque-Dawley rats [5]; doses used in the CCl-induced tactile hypersensitivity study, IP): not associated with sedation or ataxia
- Change from Baseline (T10) (Spraque-Dawley rats [6]; 10.0 mg/kg IP with PGE2, PGE2 + vehicle −5.6): −1.5
- T10 (temperature producing half-maximal tail-withdrawal latency) (Spraque-Dawley rats [6]; 10 mg/kg IP with PGE2, PGE2 alone 44.8±0.1, vehicle 50.3±0.4): 48.8±0.2
- Change from Baseline (T10) (Spraque-Dawley rats [7]): −0.3
- % Reversal of CCl-induced tactile hypersensitivity (Spraque-Dawley rats [8]; cumulative dose 1 mg/kg): 13%
- % Reversal of CCl-induced tactile hypersensitivity (Spraque-Dawley rats [8]; cumulative dose 3 mg/kg): 45%
- % Reversal of CCl-induced tactile hypersensitivity (Spraque-Dawley rats [8]; cumulative dose 10 mg/kg, 10 mg/kg): 97%
- % MPE (reversal of PGE2-induced thermal hypersensitivity) (Spraque-Dawley rats [9]; IP, 1 mg/kg): −7%
- % MPE (reversal of PGE2-induced thermal hypersensitivity) (Spraque-Dawley rats [9]; IP, 3 mg/kg): 66%
- % MPE (reversal of PGE2-induced thermal hypersensitivity) (Spraque-Dawley rats [9]; IP, 10 mg/kg, 10 mg/kg): 79%
- % MPE (reversal of PGE2-induced thermal hypersensitivity) (Spraque-Dawley rats [9]; PO, 10 mg/kg): 5%
- % MPE (reversal of PGE2-induced thermal hypersensitivity) (Spraque-Dawley rats [9]; PO, 30 mg/kg): 23%
- % MPE (reversal of PGE2-induced thermal hypersensitivity) (Spraque-Dawley rats [9]; PO, 100 mg/kg, 100 mg/kg): 87%
